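48-hour exposure; five concentrations; linearly interpolated endpoints. TGI: concentration producing complete growth inhibition.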 Some results are limits rather than exact numbers.

Common to all, as to test: growth of human tumour cells (NCI), 48 h
Experiment [1] concerns HS 578T breast.
Experiment [2] deals with BT-549 breast.
Experiment [3] concerns MALME-3M melanoma.
For experiment [4], the system named is RPMI-8226 leukemia.
The test system of experiment [5] is SR leukemia.
Experiment [6] concerns HT29 colon.
The test system of experiment [7] is OVCAR-8 ovarian.
Experiment [8] deals with K-562 leukemia.
Experiment [9] has as its system CAKI-1 renal.
In experiment [10] the test system is HL-60(TB) leukemia.
The test system of experiment [11] is MDA-MB-231 breast.
In experiment [12] the test system is M14 melanoma.
In experiment [13] the test system is NCI/ADR-RES ovarian.
The test system of experiment [14] is HCT-116 colon.
Experiment [15] relates to OVCAR-5 ovarian.
Experiment [16] concerns ACHN renal.
The test system of experiment [17] is MDA-MB-435.
The subject of experiment [18] is SW-620 colon.
Experiment [19] has as its system PC-3 prostate.

For the compound `O=C(Cc1ccccc1)NNc1nc(NNC(=O)c2ccncc2)nc(Nc2ccccc2)n1`, the TGI in [1], in [2], in experiment [3], in experiment [4], in [5] and in experiment [6] was more than 10 µM throughout. The TGI in [7], in [8], in experiment [9], in experiment [10], in experiment [11] and in experiment [12] was more than 10 µM throughout. Besides, the TGI in experiment [13] was more than 10 µM.

With `O=C1Oc2ccccc2C(=O)/C1=C/N1C(=O)N/C(=C\c2cccc(O)c2)C1=O`, the TGI in [14] is more than 100 µM; in [15], more than 100 µM; in [2] it was 73.2 µM; in [16] it was more than 100 µM; in experiment [17], more than 100 µM; in experiment [6] it was more than 100 µM. In addition, the TGI in [7], in [9], in experiment [18], in experiment [10], in [11] and in [12] was more than 100 µM throughout. Moreover, the TGI in experiment [13] and in experiment [19] was more than 100 µM throughout.

`COc1c(C)c(C/C=C(\C)CCCCO)c(OC)c(OC)c1OC`: the TGI in experiment [14], in [1], in experiment [15], in [2], in experiment [16] and in experiment [17] was more than 100 µM in each case. Moreover, the TGI in experiment [4] was 35.4 µM; in experiment [5], more than 100 µM; in experiment [6], more than 100 µM; in experiment [7] it was more than 100 µM; in experiment [8], more than 100 µM; in [18], more than 100 µM. Also, the TGI in experiment [11], in experiment [12], in experiment [13] and in experiment [19] was more than 100 µM in each case.

In the case of `COc1ccc(N2C(=O)c3cccnc3S2(=O)=O)cc1`, the TGI in experiment [14], in experiment [15], in [2], in experiment [16], in experiment [3] and in [17] was more than 100 µM each time. For the same compound, the TGI in experiment [4], in experiment [5], in [6], in [7], in experiment [8] and in experiment [9] was more than 100 µM in each case. The TGI in [18], in experiment [10], in experiment [11], in experiment [12], in experiment [13] and in [19] was more than 100 µM each time.

As for `Cc1nc(-c2cc3c(ccc4ccccc43)oc2=O)cc2c1c(=O)oc1ccc3ccccc3c12`, the TGI in [14], in experiment [15], in experiment [2], in [16], in [3] and in [17] was more than 100 µM throughout. Besides, the TGI in experiment [5], in [6], in [7], in [8], in experiment [9] and in [18] was more than 100 µM throughout. The TGI in experiment [10], in [11], in experiment [12], in experiment [13] and in [19] was more than 100 µM throughout.

With `NC1=CN(Cc2ccccc2)C2=N/C(=C\c3ccccc3)C(=O)N12`, the TGI in experiment [14], in experiment [1], in [15], in experiment [2], in experiment [16] and in [3] was more than 100 µM each time. Further, the TGI in [17], in experiment [4], in experiment [6], in experiment [7], in [8] and in experiment [9] was more than 100 µM in each case. Moreover, the TGI in experiment [18], in experiment [10], in experiment [11], in experiment [12], in experiment [13] and in experiment [19] was more than 100 µM each time.

Consider `CC(C)=C[C@@H]1C[C@H](C)c2c(O)cc(C)c3c2C1=C(C)C(=O)C3=O`, for which the TGI amounted to 28.5 µM in experiment [14]; 41.8 µM in experiment [1]; 62.2 µM in experiment [15]; 28.1 µM in [2]; 34.3 µM in experiment [16]; 29.4 µM in experiment [3]. Moreover, the TGI in experiment [17] came to 29.4 µM; in experiment [4], 41.6 µM; in experiment [6], 40.6 µM; in experiment [7] it was 35.2 µM; in experiment [8], 40.1 µM; in experiment [9], 30.2 µM. For the same compound, the TGI was determined as 32.4 µM in [18]; 44.4 µM in experiment [10]; 33.9 µM in experiment [11]; 27 µM in experiment [12]; 49.6 µM in [13]; 23.6 µM in experiment [19].

Consider `COc1cc2nc(-c3ccccc3F)[nH]c(=O)c2cc1OC`, for which the TGI in experiment [14], in [1], in experiment [15], in experiment [2], in experiment [16] and in experiment [3] was more than 100 µM in each case. Also, the TGI in experiment [4], in [5], in experiment [6], in [7], in experiment [8] and in experiment [9] was more than 100 µM each time. The TGI in [10], in [11], in experiment [12], in [13] and in experiment [19] was more than 100 µM in each case.

`NCCCCN(CCCN)Cc1ccccc1`: the TGI in experiment [14], in experiment [1], in experiment [15], in [2], in experiment [16] and in experiment [17] was more than 100 µM each time. For the same compound, the TGI in [4], in experiment [6], in experiment [7], in experiment [8], in experiment [9] and in experiment [18] was more than 100 µM throughout. Besides, the TGI in experiment [10], in [11], in [12], in [13] and in [19] was more than 100 µM throughout.

With `CN1C(=O)[C@@H]2N(CSC2(C)C)C1=S`, the TGI in experiment [14], in [15], in [2], in experiment [16], in experiment [17] and in experiment [4] was more than 100 µM throughout. For the same compound, the TGI in experiment [5], in experiment [6], in experiment [7], in experiment [8], in experiment [9] and in experiment [18] was more than 100 µM in each case. The TGI in experiment [11], in experiment [12], in experiment [13] and in experiment [19] was more than 100 µM each time.

For the compound `COc1ccc2c(c1)CC[C@@H]1[C@@H]2CC[C@]2(C)C(=O)/C(=C/c3ccncc3)C[C@@H]12`, the TGI was more than 100 µM in experiment [14]; more than 100 µM in experiment [15]; more than 100 µM in experiment [2]; more than 100 µM in experiment [16]; 77.3 µM in experiment [3]; 92.4 µM in experiment [17]. Moreover, the TGI in experiment [4], in experiment [5], in experiment [6], in experiment [7], in [8] and in experiment [9] was more than 100 µM each time. For the same compound, the TGI is 86 µM in experiment [18]; more than 100 µM in experiment [11]; more than 100 µM in experiment [12]; more than 100 µM in experiment [13]; more than 100 µM in experiment [19].

In the case of `Cc1ccsc1C(=O)C(CC(=O)c1cccs1)c1ccsc1` (centres undefined), the TGI in experiment [14], in [1], in experiment [15], in experiment [2], in [16] and in experiment [3] was more than 100 µM each time. The TGI in [17], in experiment [5], in experiment [6], in experiment [7], in experiment [8] and in experiment [9] was more than 100 µM throughout. In addition, the TGI in experiment [18], in experiment [11], in [12], in experiment [13] and in experiment [19] was more than 100 µM throughout.

For `CCOC(CI)O[C@@H]1C=C[C@H](OC(C)=O)C1` (some centres undefined), the TGI in experiment [14], in experiment [15], in experiment [2], in [16], in [3] and in experiment [17] was more than 100 µM throughout. Further, the TGI in [4], in experiment [6], in experiment [7], in [8], in experiment [9] and in experiment [18] was more than 100 µM throughout. In addition, the TGI in experiment [11], in [12], in experiment [13] and in experiment [19] was more than 100 µM in each case.

Source of the values: PubChem BioAssay (NCI).
